Test results published in ChEMBL document CHEMBL3390848, “Affinity selection and sequence-activity relationships of HIV-1 membrane fusion inhibitors directed at the drug-resistant variants” (Medchemcomm, 2010).
Residues, ends and D or L forms follow the SMILES beside them.

Assays:
[1] = system: Human immunodeficiency virus 1; experiment: Binding affinity to HIV1 His-tagged N-terminal heptad repeat of envelope glycoprotein gp41 assessed as recovery of N36-drug complex at 10 uM after 2 hrs by LC-MS analysis
[2] = system: Human immunodeficiency virus 1; experiment: Binding affinity to HIV1 His-tagged N-terminal heptad repeat of envelope glycoprotein gp41 assessed as recovery of N36-drug complex at 6 uM after 2 hrs by LC-MS analysis
[3] = system: Human immunodeficiency virus 1; experiment: Binding affinity to HIV1 His-tagged N-terminal heptad repeat of envelope glycoprotein gp41 assessed as recovery of N36-drug complex at 1 uM after 2 hrs by LC-MS analysis
[4] = system: Human immunodeficiency virus 1; experiment: Thermal stability of HIV1 envelope glycoprotein gp41 His-tagged N-terminal heptad repeat N36-drug complex assessed as thermal unfolding transition state by measuring molar ellipticity at 4 to 90 degC by circular dichroic spectra analysis
[5] = system: Human immunodeficiency virus 1; experiment: Antiviral activity against HIV1 NL4-3 harboring gp41 D36G mutant infected in human HeLa cells expressing CD4-LTR-beta-gal assessed as inhibition of viral replication after 48 hrs by MAGI assay; format: functional, organism-based
[6] = system: Human immunodeficiency virus 1; experiment: Binding affinity to HIV1 His-tagged N-terminal heptad repeat of envelope glycoprotein gp41 assessed as recovery of N36-drug complex at 0.6 uM after 2 hrs by LC-MS analysis

Row | SMILES | Activity [1] | Activity [2] | Activity [3] | Tm [4] | EC50 [5] | Activity [6]
1 | CC[C@H](C)[C@H](NC(=O)[C@H](CC(C)C)NC(=O)[C@H](CCC(=O)O)NC(=O)[C@H](CCC(=O)O)NC(=O)[C@@H](NC(=O)[C@H](CCCCN)NC(=O)[C@H](CCCCN)NC(=O)[C@@H](NC(=O)[C@H](Cc1ccc(O)cc1)NC(=O)[C@H](CCC(=O)O)NC(=O)[C@H](CCC(=O)O)NC(=O)[C@@H](NC(=O)[C@H](CCCCN)NC(=O)[C@H](CCCCN)NC(=O)[C@H](CC(=O)O)NC(=O)[C@H](Cc1c[nH]c2ccccc12)NC(=O)[C@H](CCC(=O)O)NC(=O)[C@H](CCC(=O)O)NC(=O)[C@H](Cc1c[nH]c2ccccc12)NC(C)=O)[C@@H](C)CC)[C@@H](C)O)[C@@H](C)CC)C(=O)N[C@@H](CCCCN)C(=O)N[C@@H](CCCCN)C(=O)N[C@@H](CCSC)C(=O)N[C@@H](CCC(=O)O)C(=O)N[C@@H](CCC(=O)O)C(=O)N[C@@H](CCC(N)=O)C(=O)N[C@@H](CCC(N)=O)C(=O)N[C@@H](CCCCN)C(=O)N[C@@H](CCCCN)C(=O)N[C@@H](CC(N)=O)C(=O)N[C@@H](CCC(=O)O)C(=O)N[C@@H](CCC(=O)O)C(=O)N[C@@H](CCC(=O)O)C(=O)N[C@@H](CC(C)C)C(=O)N[C@@H](CCCCN)C(=O)N[C@@H](CCCCN)C(N)=O (Ac-WEEWDKKIEEYTKKIEELIKKMEEQQKKNEEELKK-NH2) | 8.9% | 13.3% | 12.5% | 84.1 °C | 0.68 nM | 6.8%
2 | CC[C@H](C)[C@H](NC(=O)[C@H](CC(C)C)NC(=O)[C@H](CCC(=O)O)NC(=O)[C@H](CCC(=O)O)NC(=O)[C@@H](NC(=O)[C@H](CCCCN)NC(=O)[C@H](CCCCN)NC(=O)[C@@H](NC(=O)[C@H](Cc1ccc(O)cc1)NC(=O)[C@H](CCC(=O)O)NC(=O)[C@H](CCC(=O)O)NC(=O)[C@@H](NC(=O)[C@H](CCCCN)NC(=O)[C@H](CCCCN)NC(=O)[C@H](CC(=O)O)NC(=O)[C@H](Cc1c[nH]c2ccccc12)NC(=O)[C@H](CCC(=O)O)NC(=O)[C@H](CCC(=O)O)NC(=O)[C@H](Cc1c[nH]c2ccccc12)NC(C)=O)[C@@H](C)CC)[C@@H](C)O)[C@@H](C)CC)C(=O)N[C@@H](CCCCN)C(=O)N[C@@H](CCCCN)C(=O)N[C@@H](CC(N)=O)C(=O)N[C@@H](CCC(=O)O)C(=O)N[C@@H](CCC(=O)O)C(=O)N[C@@H](CCC(N)=O)C(=O)N[C@@H](CCC(N)=O)C(=O)N[C@@H](CCCCN)C(=O)N[C@@H](CCCCN)C(=O)N[C@@H](CC(N)=O)C(=O)N[C@@H](CCC(=O)O)C(=O)N[C@@H](CCC(=O)O)C(=O)N[C@@H](CCC(=O)O)C(=O)N[C@@H](CC(C)C)C(=O)N[C@@H](CCCCN)C(=O)N[C@@H](CCCCN)C(N)=O (Ac-WEEWDKKIEEYTKKIEELIKKNEEQQKKNEEELKK-NH2) | 1.1% | 0.5% | 4.3% | 69 °C | 2.2 nM | 6.4%
3 | CC[C@H](C)[C@H](NC(=O)[C@H](CC(C)C)NC(=O)[C@H](CCC(=O)O)NC(=O)[C@H](CCC(=O)O)NC(=O)[C@@H](NC(=O)[C@H](CCCCN)NC(=O)[C@H](CCCCN)NC(=O)[C@@H](NC(=O)[C@H](Cc1ccc(O)cc1)NC(=O)[C@H](CCC(=O)O)NC(=O)[C@H](CCC(=O)O)NC(=O)[C@@H](NC(=O)[C@H](CCCCN)NC(=O)[C@H](CCCCN)NC(=O)[C@H](CC(=O)O)NC(=O)[C@H](Cc1c[nH]c2ccccc12)NC(=O)[C@H](CCC(=O)O)NC(=O)[C@H](CCC(=O)O)NC(=O)[C@H](Cc1c[nH]c2ccccc12)NC(C)=O)[C@@H](C)CC)[C@@H](C)O)[C@@H](C)CC)C(=O)N[C@@H](CCCCN)C(=O)N[C@@H](CCCCN)C(=O)N[C@@H](CCC(N)=O)C(=O)N[C@@H](CCC(=O)O)C(=O)N[C@@H](CCC(=O)O)C(=O)N[C@@H](CCC(N)=O)C(=O)N[C@@H](CCC(N)=O)C(=O)N[C@@H](CCCCN)C(=O)N[C@@H](CCCCN)C(=O)N[C@@H](CC(N)=O)C(=O)N[C@@H](CCC(=O)O)C(=O)N[C@@H](CCC(=O)O)C(=O)N[C@@H](CCC(=O)O)C(=O)N[C@@H](CC(C)C)C(=O)N[C@@H](CCCCN)C(=O)N[C@@H](CCCCN)C(N)=O (Ac-WEEWDKKIEEYTKKIEELIKKQEEQQKKNEEELKK-NH2) | 0.9% | 0.5% | 2.1% | 65.9 °C | 2.4 nM | 6.1%
4 | CC[C@H](C)[C@H](NC(=O)[C@H](CC(C)C)NC(=O)[C@H](CCC(=O)O)NC(=O)[C@H](CCC(=O)O)NC(=O)[C@@H](NC(=O)[C@H](CCCCN)NC(=O)[C@H](CCCCN)NC(=O)[C@@H](NC(=O)[C@H](Cc1ccc(O)cc1)NC(=O)[C@H](CCC(=O)O)NC(=O)[C@H](CCC(=O)O)NC(=O)[C@@H](NC(=O)[C@H](CCCCN)NC(=O)[C@H](CCCCN)NC(=O)[C@H](CC(=O)O)NC(=O)[C@H](Cc1c[nH]c2ccccc12)NC(=O)[C@H](CCC(=O)O)NC(=O)[C@H](CCC(=O)O)NC(=O)[C@H](Cc1c[nH]c2ccccc12)NC(C)=O)[C@@H](C)CC)[C@@H](C)O)[C@@H](C)CC)C(=O)N[C@@H](CCCCN)C(=O)N[C@@H](CCCCN)C(=O)N[C@@H](CCCNC(=N)N)C(=O)N[C@@H](CCC(=O)O)C(=O)N[C@@H](CCC(=O)O)C(=O)N[C@@H](CCC(N)=O)C(=O)N[C@@H](CCC(N)=O)C(=O)N[C@@H](CCCCN)C(=O)N[C@@H](CCCCN)C(=O)N[C@@H](CC(N)=O)C(=O)N[C@@H](CCC(=O)O)C(=O)N[C@@H](CCC(=O)O)C(=O)N[C@@H](CCC(=O)O)C(=O)N[C@@H](CC(C)C)C(=O)N[C@@H](CCCCN)C(=O)N[C@@H](CCCCN)C(N)=O (Ac-WEEWDKKIEEYTKKIEELIKKREEQQKKNEEELKK-NH2) | 0.3% | 0.1% | 0% | 52.3 °C | 280 nM | 2.5%
5 | CC[C@H](C)[C@H](NC(=O)[C@H](CCCCN)NC(=O)[C@H](CCCCN)NC(=O)[C@H](CC(=O)O)NC(=O)[C@H](Cc1c[nH]c2ccccc12)NC(=O)[C@H](CCC(=O)O)NC(=O)[C@H](CCC(=O)O)NC(=O)[C@H](Cc1c[nH]c2ccccc12)NC(C)=O)C(=O)N[C@@H](CCC(=O)O)C(=O)N[C@@H](CCC(=O)O)C(=O)N[C@@H](Cc1ccc(O)cc1)C(=O)N[C@H](C(=O)N[C@@H](CCCCN)C(=O)N[C@@H](CCCCN)C(=O)N[C@H](C(=O)N[C@@H](CCC(=O)O)C(=O)N[C@@H](CCC(=O)O)C(=O)N[C@@H](CC(C)C)C(=O)N[C@H](C(=O)N[C@@H](CCCCN)C(=O)N[C@@H](CCCCN)C(=O)N[C@H](C(=O)N[C@@H](CCC(=O)O)C(=O)N[C@@H](CCC(=O)O)C(=O)N[C@@H](CCC(N)=O)C(=O)N[C@@H](CCC(N)=O)C(=O)N[C@@H](CCCCN)C(=O)N[C@@H](CCCCN)C(=O)N[C@@H](CC(N)=O)C(=O)N[C@@H](CCC(=O)O)C(=O)N[C@@H](CCC(=O)O)C(=O)N[C@@H](CCC(=O)O)C(=O)N[C@@H](CC(C)C)C(=O)N[C@@H](CCCCN)C(=O)N[C@@H](CCCCN)C(N)=O)C(C)C)[C@@H](C)CC)[C@@H](C)CC)[C@@H](C)O (Ac-WEEWDKKIEEYTKKIEELIKKVEEQQKKNEEELKK-NH2) | 2.8% | 6% | 12.1% | 79.9 °C | 1.9 nM | 7%
6 | CC[C@H](C)[C@H](NC(=O)[C@H](CC(C)C)NC(=O)[C@H](CCC(=O)O)NC(=O)[C@H](CCC(=O)O)NC(=O)[C@@H](NC(=O)[C@H](CCCCN)NC(=O)[C@H](CCCCN)NC(=O)[C@@H](NC(=O)[C@H](Cc1ccc(O)cc1)NC(=O)[C@H](CCC(=O)O)NC(=O)[C@H](CCC(=O)O)NC(=O)[C@@H](NC(=O)[C@H](CCCCN)NC(=O)[C@H](CCCCN)NC(=O)[C@H](CC(=O)O)NC(=O)[C@H](Cc1c[nH]c2ccccc12)NC(=O)[C@H](CCC(=O)O)NC(=O)[C@H](CCC(=O)O)NC(=O)[C@H](Cc1c[nH]c2ccccc12)NC(C)=O)[C@@H](C)CC)[C@@H](C)O)[C@@H](C)CC)C(=O)N[C@@H](CCCCN)C(=O)N[C@@H](CCCCN)C(=O)N[C@@H](Cc1ccc(O)cc1)C(=O)N[C@@H](CCC(=O)O)C(=O)N[C@@H](CCC(=O)O)C(=O)N[C@@H](CCC(N)=O)C(=O)N[C@@H](CCC(N)=O)C(=O)N[C@@H](CCCCN)C(=O)N[C@@H](CCCCN)C(=O)N[C@@H](CC(N)=O)C(=O)N[C@@H](CCC(=O)O)C(=O)N[C@@H](CCC(=O)O)C(=O)N[C@@H](CCC(=O)O)C(=O)N[C@@H](CC(C)C)C(=O)N[C@@H](CCCCN)C(=O)N[C@@H](CCCCN)C(N)=O (Ac-WEEWDKKIEEYTKKIEELIKKYEEQQKKNEEELKK-NH2) | 0.5% | 0.4% | 2.3% | 68 °C | 1.9 nM | 5.9%
